Reference: the NIST ThermoML archive (doi:10.1016/j.jct.2014.04.003)
Numbers after ± are expanded uncertainties.

Assay: molar enthalpy of vaporization or sublimation
Conditions: 298.15 K; Liquid; Static calorimetry

In the case of Cc1ccc(C)n1C [1,2,5-trimethylpyrrole], the molar enthalpy is reported as 12.1 ± 0.311 kcal/mol.
